For one test, the system named is tobacco. Conditions: Puchta et al., 1995; cited from earlier work.
Test [1] has as its target T1, APP (Arabidopsis thaliana, UniProt Q11207). As to the kind of experiment: In situ detection of poly(ADP-ribose) polymer with 10H monoclonal antibody in yeast spheroplasts expressing APP. In kind it is cell-based. Also on record: The full-length app cDNA was placed in pYeDP1/8-2 under the control of a galactose-inducible yeast promoter; expressed in transfected cells; host or cells: Saccharomyces cerevisiae strain DY transformed with pV8SPA, grown on galactose. The conditions noted are these: DY(pV8SPA) cells grown on galactose in the presence of the inhibitor. How it is done: In situ antigen localization in yeast cells was carried out as described (Harlow and Lane, 1988). For the localization of the APP protein in yeast spheroplasts, anti-APP serum was diluted 1:3,000 to 1:5,000 in Tris-buffered saline-BSA buffer. 10H monoclonal antibody, which specifically recognizes poly(ADP-ribose) polymer (Ikajima et al., 1990) was used in a 1:100 dilution in PBS buffer. The mouse antibody were detected with the sheep anti-mouse IgG F(ab′)2 fragment conjugated to fluorescein isothiocyanate (FITC) (Sigma) at a dilution of 1:200. Rabbit IgG was detected with CY-3 conjugated sheep anti-rabbit IgG sheep F(ab)2 fragment (Sigma), at a dilution of 1:200. For the visualization of DNA, slides were incubated for 1 min in PBS with 10 μg ml^−1 of 4′,6-diamidino-2-phenylindole (DAPI; Sigma). Fluorescence imaging was performed on an Axioskop epifluorescence microscope (Zeiss, Jena, Germany). For observation of FITC and CY-3 fluorochromes, 23 and 15 filter cubes were used, respectively. Cells were photographed with Fuji Color-100 super plus film.
In addition, we tested whether APP was constitutively active in yeast cells, as has been reported for the human PARP (Collinge and Althaus, 1994). […] A positive yellowish-green fluorescence signal with 10H antibody was localized in the nucleus and was observed only in DY(pV8SPA) cells grown on galactose.

The test system of test [2] is differentiating cells of Zinnia or of Helianthus tuberosum. Conditions: literature; cited from earlier work.
Test [3] deals with T1, APP. As to the kind of experiment: Poly(ADP-ribose) polymerase activity assay in total protein extracts of yeast expressing APP.
For test [4], the system named is Arabidopsis shoots (C24; Columbia). As to the kind of experiment: Fitness assay Arabidopsis (TTC-assay). The conditions noted are these: 2 mM niacinamide in incubation medium, about 20 hours; lines C24 and Columbia. In kind it is in vivo.

“Also recorded” adds a separate entry of the source.

Consider `NC(=O)c1cccc(N)c1` [3ABA, 3-aminobenzamide], for which the “rates of homologous intrachromosomal recombination” value in the test with tobacco was “increased”. In addition, the “positive staining with 10H antibody (poly(ADP-ribose) polymers) in the nucleus” value on APP [1] is “greatly reduced”. The “development of tracheary elements” value in test [2] is “prevent development of tracheary elements”. For the same molecule, the “synthesis of poly(ADP-ribose)” value at APP [3] (3ABA 3 mM in the reaction mix, nucleic acid depleted DY(pV8SPA) extract, FIG. 5B lane 5) is given as “sensitive; also recorded: blocked”. Moreover, the “radioactivity incorporated into polymer” value on APP [3] (yeast strain grown with 3ABA (3 mM) versus without, 3ABA removed from extracts during desalting, FIG. 5A lane 1 vs 2) is “More radioactivity was incorporated into polymer”.

Consider `O=c1[nH]c2ccccc2c2ccccc12` [6(5H)-phenasthridinone], for which, in test [2], the “development of tracheary elements” value was “prevent development of tracheary elements”.

For `NC(=O)c1cccnc1` [nicotinamide], in test [4], the TTC-reducing capacity result was “higher TTC-reducing capacity”. Besides, the “positive staining with 10H antibody (poly(ADP-ribose) polymers) in the nucleus” value at APP [1] is “greatly reduced”. The “development of tracheary elements” value in test [2] is listed as “prevent development of tracheary elements”.

B1: APP: NAP protein of Arabidopsis thaliana (SEQ ID No 6), non-conventional PARP, expressed in yeast (protein, listed as Arabidopsis thaliana)
chain: MANKLKVDELRLKLAERGLSTTGVKAVLVERLEEAIAEDTKKEESKSKRKRNSSNDTYESNKLIAIGEFRGMIVKELREEAIKRGLDTTGTKKDLLERLCNDANNVSNAPVKSSNGTDEAEDDNNGFEEEKKEEKIVTATKKGAAVLDQWIPDEIKSQYHVLQRGDDVYDAILNQTNVRDNNNKFFVLQVLESDSKKTYMVYTRWGRVGVKGQSKLDGPYDSWDRAIEIFTNKFNDKTKNYWSDRKEFIPHPKSYTWLEMDYGKEENDSPVNNDIPSSSSEVKPEQSKLDTRVAKFISLICNVSMMAQHMMEIGYNANKLPLGKISKSTISKGYEVLKRISEVIDRYDRTRLEELSGEFYTVIPHDFGFKKMSQFVIDTPQKLKQKIEMVEALGEIELATKLLSVDPGLQDDPLYYHYQQLNCGLTPVGNDSEEFSMVANYMENTHAKTHSGYTVEIAQLFRASRAVEADRFQQFSSSKNRMLLWHGSRLTNWAGILSQGLRIAPPEAPVTGYMFGKGVYFADMFSKSANYCYANTGANDGVLLLCEVALGDMNELLYSDYNADNLPPGKLSTKGVGKTAPNPSEAQTLEDGVVVPLGKPVERSCSKGMLLYNEYIVYNVEQIKMRYVIQVKFNYKH
As for B1, the “radioactivity incorporated into poly(ADP-ribose), 40 μg/ml DNA versus 2 μg/ml DNA” value with APP [3] (sonicated salmon sperm DNA, phosphor-image scanning, FIG. 5B lanes 4 and 2) is on record as roughly 6 fold.

These data come from patent US8058510B2, “Method and means to modulate programmed cell death in eukaryotic cells” (Bayer Bioscience N.V., priority 1998, dated 2011).
